According to patent US12053465B2, “KCC2 expression enhancing compounds and uses thereof” (Whitehead Institute for Biomedical Research, priority 2017, dated 2024):

Assays:
KCC2 expression [1] = test: Western blot of KCC2 in cultured human RTT neurons; type: cell-based
Method: Protein samples were collected from cultured brain slices or cultured neurons in 12-well format with RIPA lysis buffer (in mM: 150 NaCl, 25 Tris-HCl, 1 EDTA, 1% NP-40, 1% sodium deoxycholate, 0.1% SDS, with protein kinase inhibitor and protease inhibitor, pH adjusted to 7.6). A sonication step was applied to homogenize tissue and extract protein, followed by a 10 minute centrifugation at 4° C. […] The PVDF membrane was blocked for 30 minutes with 5% milk in TBS+0.1% Tween 20 (TBST), and incubated overnight at 4° C. with primary antibodies diluted in TBST-milk at the following concentrations: KCC2 (1:2000, Millipore), NKCC1 (1:1000, Iowa Hybridoma bank), α-Tubulin (1:4000, Abcam), GAPDH (1:3000, Abcam), Actin (1:2000, Sigma Aldrich #A2066). The membrane was rinsed with TBST three times to wash off excess antibodies, and then incubated in secondary HRP antibodies in TBST-milk at 1:5000 concentration.
The PVDF membrane was then stripped using the Re-blot plus strong solution (Millipore), and re-immunoblotted for NKCC1 (˜150 kDa) to acquire KCC2/NKCC1 ratio. The area and intensity of protein signal was determined using ImageJ. The relative KCC2 and NKCC1 expression were calculated by normalizing protein signal to GAPDH or Tubulin loading control.

KCC2 expression [2] = test: Western blot of KCC2 in cultured WT human neurons; type: cell-based; conditions: cultured WT human neurons (WIBR1); Western blot
KCC2 expression [3] = test: Western blot of KCC2 in organotypic mouse brain slices; type: cell-based; conditions: organotypic neonatal mouse brain slices, treated 7 days, vs DMSO, MeBIO or medium-only control
KCC2 mRNA = test: Quantitative RT-PCR of KCC2 mRNA in organotypic mouse brain slices; type: cell-based
Method: (§1) Brain slices were also treated with the FLT3 inhibitors Crenolanib and XL-184. […] To assess whether increased KCC2 protein levels were due to increased gene transcription or enhanced protein stability, quantitative RT-PCR experiments were performed to measure the KCC2 mRNA level in KEEC-treated brain slices. […] In contrast, the expression of NKCC1, a chloride transporter that antagonizes KCC2 activity by shuttling Cl^− into the cell (44), was decreased by treatment with KEEC compounds (FIG. 8F).
(§2) Brain slice cultures were prepared from P1 neonatal mouse according to a protocol described by Antonio del Rio et al., Nature Protocols, 2010. Cerebrum slices (1 mm in thickness) were prepared from neonatal mouse brain, and were transferred to 6-well culture inserts with the pore size of 0.4 μm. The insert was placed in 6-well plates with 1 ml of culture medium. Three days after the initial culture, compounds and DMSO control were added to the medium. Alternately, in some experiments, brain slice cultures were prepared from P3 neonatal mouse according to a protocol described by Antonio del Rio et al., Nature Protocols, 2010. Cerebrum slices (1 mm in thickness) were prepared from neonatal mouse brain, and were transferred to 6-well culture inserts with the pore size of 0.4 μm. The insert was placed in 6-well plates with 1 ml of culture medium. The day after the initial culture, compounds and DMSO control were added to the medium. The medium with fresh compounds was used to replace old medium every other day. One week after drug treatment, the brain slices were harvested for Western blot or qRT-PCR analysis.
(§3) To prepare RNA samples from cultured organotypic brain slice, tissue samples were homogenized by passing through a 23 gauge needle for a number of times. Total RNA was extracted with Omega Total RNA kit and was reverse-transcribed into cDNA using the Invitrogen Superscript RT system and Oligo dT primer. SYBR green-based quantitative RT-PCR assay was performed to detect for the abundance of specific mRNA transcripts. The primer sequence for the detection of KCC2 expression in mouse brain samples are as follows: KCC2-Forward: […] (SEQ ID NO: 2); KCC2-Reverse: […] (SEQ ID NO: 3). The primer sequence for detection of NKCC1 mRNA are as follows: NKCC1-Forward: […] (SEQ ID NO: 3); NKCC1-Reverse: […] (SEQ ID NO: 4). The gene expression was calculated by normalizing the KCC2 data with the expression of housekeeping gene HDAC2 in every sample. HDAC2 expression was detected using the following primers: HDAC2-Forward: […] (SEQ ID NO: 5); HDAC2-Reverse: […] (SEQ ID NO: 6). Relative gene expression levels were calculated by normalizing KCC2 or NKCC1 expression in drug-treated groups with that in DMSO controls with the housekeeping gene HDAC being used as internal control.

NKCC1 mRNA = test: Quantitative RT-PCR of NKCC1 mRNA in organotypic mouse brain slices; type: cell-based
Method: as §1, §2, §3

[4] = system: KCC2 expression (KCC2-2A-luciferase reporter); test: KCC2-2A-luciferase reporter compound screening with RTT KCC2 reporter neurons; type: cell-based, human; conditions: for B Score: MECP2-null RTT human KCC2 reporter neurons, LINCS, SMART, ICCB libraries, Luc/CTG normalized to in-plate DMSO, hit = B score >3
Method: The RTT KCC2-2A-luciferase reporter neurons were treated with the test compounds from the LINCS kinase inhibitor library and IRSF SMART compound library and incubated before being lysed. The cell lysate was divided into two parts to measure luciferase signal (KCC2 translation) and Cell-Titer Glow (CTG, amount of ATP). The luciferase signal was normalized to CTG for each well, and the Luc/CTG ratio was normalized to the in-plate DMSO negative control to calculate fold change ratio.
Additional screens for reporter activation in the MECP2-null RTT human KCC2 reporter neurons (isogenic to the WT reporter cells used above) were performed with the LINCS and SMART libraries as well as the ICCB known bioactive library and identified hits as compounds with B score >3.
The cells were dissociated with Accutase and resuspended in 10 ml neuronal differentiation medium to count cells. The cells were then diluted to the final density of 200,000 to 500,000 cells/ml. Matrigel was added to the cell suspension at a dilution ratio of 1:300 to promote cell adhesion after plating. AraC was added to cell suspension at the concentration of 2 μM to inhibit cell division. The cells were plated into 96-well plates with an automated cell seeding machine using the following protocol: The neuron flask was washed with PBS. The neurons were digested off the plate with Accutase for 30 minutes at 37° C. Next, the dissociated cells were collected and spun down at 750 rpm for 5 minutes. The cell pellet was dissociated by gentle trituration with P1000 pipet and the cells were resuspended with 10 ml of neuronal medium. Then, the cells were filtered through a 40 μm cell strainer (Falcon) to get rid of clumps. The resulting single-cell suspension was counted using a Countess automated cell counter (Invitrogen Countess Automated Cell Counter, Catalog no. C10227). The neurons were resuspended with neuronal medium to 10× of the destination density (100,000 cells to 400,000 cells per ml). The cells were plated with a multichannel pipette, or proceeded to the machine-plating protocol described below:
The day after cell seeding, small molecule compounds from the IRSF (International Rett Syndrome Foundation) library were prepared at a concentration of 1 mM and dispensed into a blank V-bottomed test plates at 2 μl per well. Compound solvent DMSO was included in every plate as control. Using a liquid handling robot, about 80 μl of culture medium were discarded. Neuronal medium in the volume of 200 μl was added to the V-bottom test plate that contained 2 μl of 1 mM compounds, and mixed with compounds by pipetting up-and-down 3 times. The medium that contained the 10 μM compounds was then applied to the neuronal cell culture and incubated for 2 weeks before cell lysis and luciferase assay were performed.
The cells were dissociated with Accutase, resuspended in 10 ml neuronal differentiation medium to count cells. the final cell seeding density was 20 k-40 k cells per well for 96-well plates, and ˜10 k cells per well for 384-well plates. Matrigel was added to the cell suspension at a dilution ratio of 1:300 to promote cell adhesion after plating. AraC were added to the cell suspension at the concentration of 0.5 μM to inhibit astroglial cell division. The cells were dispensed into 96-well or 384-well plates (Coming) using a BioTek EL406 plate dispenser. […] The neurons were incubated with the compounds at 37° C./5% CO2 for a week before the luciferase assay.
The cells used for luciferase assay were KCC2 reporter neurons differentiated for 4 weeks, and treated with drug in 96-well format for 2 weeks. Cell density was between 20 k-40 k cells per well.
On the day of the luciferase assay, the cells were washed with PBS for two times, and 100 μl of cell lysis buffer was applied to the washed cells. The cell plates were transferred to a rocker to shake for 10 minutes in order to fully lyse the cells.

REST = test: Western blot of REST in cultured human RTT neurons; type: cell-based
Excerpt: Two hit compounds Resveratrol and Piperine act on different pathways than the kinase inhibitors, activating the Sirtuin 1 (SIRT1) (49) and the transient receptor potential cation channel subfamily V member 1 (TRPV1) (50) signaling pathways, respectively.
Protein samples were collected from cultured brain slices or cultured neurons in 12-well format with RIPA lysis buffer (in mM: 150 NaCl, 25 Tris-HCl, 1 EDTA, 1% NP-40, 1% sodium deoxycholate, 0.1% SDS, with protein kinase inhibitor and protease inhibitor, pH adjusted to 7.6). A sonication step was applied to homogenize tissue and extract protein, followed by a 10 minute centrifugation at 4° C. The protein samples were mixed with NuPAGE LDS sample buffer, heated at 95° C. for 10 minutes, and then separated on NuPAGE 4-12% Bis-Tris gel and transferred to PVDF membrane. The PVDF membrane was blocked for 30 minutes with 5% milk in TBS+0.1% Tween 20 (TBST), and incubated overnight at 4° C. with primary antibodies diluted in TBST-milk at the following concentrations: KCC2 (1:2000, Millipore), NKCC1 (1:1000, Iowa Hybridoma bank), α-Tubulin (1:4000, Abcam), GAPDH (1:3000, Abcam), Actin (1:2000, Sigma Aldrich #A2066). The membrane was rinsed with TBST three times to wash off excess antibodies, and then incubated in secondary HRP antibodies in TBST-milk at 1:5000 concentration.

NRSF/REST = conditions: glioblastoma cell line; via SIRT1 pathway (49); cited from earlier work
immature mouse neurons = test: Gramicidin-perforated patch recording of EGABA in DIV6-7 immature mouse neurons; type: cell-based
[5] = cultured human RTT neurons, Western blot
[6] = co-applied with EX-527 below the threshold for SIRT1 pathway inhibition
[7] = in the presence of a high concentration of SIRT1 pathway blocker EX-527, vs DMSO control

SMILES | KCC2 expression (KCC2 expression [1]; [5]) | KCC2 expression (KCC2 expression [2]) | KCC2 protein level (KCC2 expression [3]) | KCC2 mRNA level (KCC2 mRNA) | NKCC1 mRNA level (NKCC1 mRNA) | B Score [4] | KCC2 reporter activity in RTT neurons ([4]; RTT KCC2-2A-luciferase reporter neurons vs in-plate DMSO) | KCC2 expression (KCC2 expression [1]; [6]) | concentration at which treatment significantly increases KCC2 expression (KCC2 expression [1]; cultured ESC-derived human RTT neurons, Western blot) [µM] | KCC2 expression (KCC2 expression [1]; [7]) | level of REST (REST; [6]) | REST expression (REST; [7]) | expression of NRSF/REST (NRSF/REST) | EGABA after treatment (immature mouse neurons; DIV6-7 immature mouse neurons, untreated about −50 mV) | significant hyperpolarizing shift in EGABA (immature mouse neurons; DIV6 cultured immature mouse neurons)
CC1(COc2ccc3c(c2)ncn3-c2ccc3cccc(N4CCC(N)CC4)c3n2)COC1 [Crenolanib, 1-(2-{5-[(3-Methyloxetan-3-yl)methoxy]-1H-benzimidazol-1-yl}quinolin-8-yl)piperidin-4-amine] | significant enhancement of KCC2 expression | significant enhancement of KCC2 expression | significantly increased the KCC2 protein level | significantly increased KCC2 expression | significant reduction in NKCC1 mRNA level |  |  |  |  |  |  |  |  |  | 
O=C1Nc2ccccc2/C1=C1/Nc2ccccc2/C1=N\O [Indirubin-monoxime, (2Z,3E)-3-(hydroxyimino)-[2,3′-biindolinylidene]-2′-one] | increased KCC2 expression levels significantly |  |  | significantly increased KCC2 expression | significant reduction in NKCC1 mRNA level |  |  |  |  |  |  |  |  |  | 
Oc1ccc(/C=C/c2cc(O)cc(O)c2)cc1 [Resveratrol, 3,5,4'-trihydroxy-trans-stilbene] | increase KCC2 expression |  |  |  |  | 12.65 | significant increase of KCC2 reporter activity | substantial increase in KCC2 expression | 10 | neither KCC2 nor REST was changed | reduction in the level of REST | neither KCC2 nor REST was changed | reduces expression of the neuronal gene repressor NRSF/REST |  | 
COc1cc2nccc(Oc3ccc(NC(=O)C4(C(=O)Nc5ccc(F)cc5)CC4)cc3)c2cc1OC [XL-184, N′-[4-[(6,7-dimethoxy-4-quinolinyl)oxy]phenyl]-N-(4-fluorophenyl)-1,1-cyclopropanedicarboxamide] | significant enhancement of KCC2 expression | significant enhancement of KCC2 expression | significantly increased the KCC2 protein level | significantly increased KCC2 expression | significant reduction in NKCC1 mRNA level | 3.25 |  |  |  |  |  |  |  | about −70 mV | induces significant hyperpolarizing shift in EGABA
CCN(CC)CCNC(=O)c1c(C)[nH]c(/C=C2\C(=O)Nc3ccc(F)cc32)c1C [Sunitinib, N-(2-diethylaminoethyl)-5-[(Z)-(5-fluoro-2-oxo-1H-indol-3-ylidene)methyl]-2,4-dimethyl-1H-pyrrole-3-carboxamide] |  | significant enhancement of KCC2 expression |  | significantly increased KCC2 expression | significant reduction in NKCC1 mRNA level |  |  |  |  |  |  |  |  |  | 
